Measurements from US20250205265A1, “ASPERULOSIDE AS AN AGENT FOR IMPROVING VASCULAR AND METABOLIC FUNCTION IN OBESITY: ROLE OF NRF2 ACTIVATION” (The Chinese University of Hong Kong, priority 2023, published 2025).

Columns and labels:
Nrf2 = Nrf2 nuclear translocation in endothelial cells; format: cell-based; conditions: ML385 co-treatment; immunofluorescence and western blotting
Procedure: After induction of obesity in C57BL/6 male mice fed with high fat diet for twelve weeks, they were treated daily with ASP (50 mg/kg) via oral gavage for seven weeks in vivo study. C57BL/6 mice aortae were used for ex vivo study and endothelial cells were used for in vitro study. Vascular function was determined by wire myograph. DHE and MitoSOX staining were used to detect ROS levels. QPCR, aortic en-face immunofluorescence staining, and Western blotting were used to analyze mRNA and protein expressions. Small interfering (si)RNA of Nrf2 and HO-1, inhibitors of Nrf2 (ML385, Cat. No.: HY-100523) and HO-1 (OB-24, HY-118487) were used to elucidate the mechanistic pathway of ASP's action.
(§1) After induction of obesity in C57BL/6 male mice fed with the high-fat diet for twelve weeks, they were treated daily with ASP (50 mg/kg) via oral gavage for seven weeks in vivo study. C57BL/6 mice aortae were used for ex vivo studies. Endothelial cells, HepG2 and primary adipocytes were used for in vitro studies. Vascular function was determined by wire myograph. H&E staining was employed for histological examination. Oil Red O staining was used to determine lipid droplets in tissues and cells. DHE and MitoSOX staining were used to detect ROS levels. QPCR, aortic en-face immunofluorescence staining, and Western blotting were used to analyze mRNA and protein expressions. ARE binding activity was determined by Dual luciferase reporter assay. Small interfering (si)RNA of Nrf2 and HO-1, inhibitors of Nrf2 (ML385, Cat. No.: HY-100523) and HO-1 (OB-24, HY-118487) were used to elucidate the mechanistic pathway of ASP's action.

[1] = system: Nrf2/antioxidant responsive element (ARE); assay: ARE binding activity, luciferase reporter assay in endothelial cells; format: cell-based; conditions: luciferase reporter assay
Procedure: as §1

Q: Which “effect on Nrf2 nuclear translocation stimulated by ASP” value (Nrf2) does the source give for `Cc1ccccc1C(=O)N1CCc2cc(-c3nc(NC(=O)Cc4ccc5c(c4)OCO5)sc3C)ccc21` [ML385, reference compound] here?
A: blocks Nrf2 nuclear translocation stimulated by ASP

Q: What about the “effect on activation of ARE binding by ASP” value [1] of the same compound?
A: attenuates the activation of ARE binding by ASP
